Measurements taken from publication PMC3600310, “Phage Display Screening for Tumor Necrosis Factor-α-Binding Peptides: Detection of Inflammation in a Mouse Model of Hepatitis” (International Journal of Peptides, 2013).

Key:
human TNF-α [1] = assay: ELISA estimation of apparent dissociation constant (Kd*) between phage clones and TNF-α; type: binding; conditions: phage clones; ELISA Kd* on BSA divided by Kd* on TNF-α
Method: (a) Estimation of the Apparent Dissociation Constant (K d*) between the Phage Clones and TNF-α. The K d* of phage clones against their target was assessed by the ELISA (enzyme-linked immunosorbent assay) method, using a range of phage dilutions incubated with the specific target.
ELISA plates were treated overnight with the target solution (human TNF-α, 0.01 mg/mL, at 4°C). The next day, the target solution was replaced by the blocking solution as described above. Plates were then incubated for 2 h at 37°C with serial phage dilutions (6.5 × 10^−11 – 3.3 × 10^−8 M) prepared in PBS containing 0.3% Tween 20. After rinsing the plate 6 times with the same buffer, phages were detected with a peroxidase-conjugated anti-M13 monoclonal antibody (Amersham Pharmacia Biotech Benelux, Roosendaal, The Netherlands) diluted 1 : 5000 in the blocking buffer. The peroxidase detection was performed using 2,2′-azino-bis[3-ethylbenztiazoline-6-sulfonic acid, diammonium salt] (ABTS, Sigma-Aldrich; 22 mg in 100 mL of 50 mM sodium citrate, pH 4.0) supplemented with 0.05% H2O2. After 30–60 min of incubation at room temperature, the OD405 values were measured on a microplate reader (Stat-Fax-2100, Awareness Technology Inc., Fisher Bioblock Scientific, Tournai, Belgium) for K d* evaluation.

[2] = ELISA interaction of biotinylated peptides with PFBB coated plate (no target); type: binding; conditions: free biotinylated peptide; plate coated with protein-free blocking buffer only; Kd* values could not be estimated
Method: The affinity of the selected peptides was evaluated by ELISA as for the phage clones (see Section 2.1.3). The target was immobilized overnight on a 96-well plate at 4°C before a 2-hour incubation with a protein-free blocking buffer solution (PFBB, Pierce, Aalst, Belgium) and then with a range of peptide dilutions: 10^‒3 M to 10^‒6 M. The target-bound biotinylated peptides were detected using ABC (Avidin Biotin Complex) and ABTS solutions as described above. The dissociation constant was estimated from the inflection point of the curve.

TNF-α = TNF-α detection by biotinylated 2C and 2L peptides in liver histological sections; parameters: species or system mouse; conditions: biotinylated peptide 20 μM overnight, ABC complex/DAB, ex vivo
Method: Adult mice (n = 6) received a single i.p. injection of 20 mg/Kg of ConA [21], a lymphocyte T activator producing inflammation in mice liver.
Mice were sacrificed 2 hours after intravenous injection of ConA, and their livers were fixed for 24 h in 4% paraformaldehyde. After fixation, the liver was dehydrated by several alcohol and butanol soakings and the organ was subsequently embedded in paraffin according to standard procedures. Sections of 4-micrometer thickness were cut for histological tests.
TNF-α detection by the phage display-selected 2C and 2L peptides was carried out with the same protocol as for anti-TNF-α polyclonal antibody (see Section 2.4.2). Briefly, liver sections were incubated overnight with the biotinylated peptides (20 μM). Reactive sites were detected with the ABC complex and DAB staining.

human TNF-α [3] = assay: ELISA competition of phage clones with an anti-TNF-α antibody; type: binding; conditions: for IC50: antibody concentration that inhibits by 50% the phage-TNF-α interaction, antibody 1.3 × 10^−9 to 6.66 × 10^−7 M pre-incubated 30 min, then phage at Kd* concentration 1 h, high IC50 = strong phage binding, read-out: IC50 of the anti-TNF-α antibody against the phage clone; for IC50 Ab anti-TNF-α/Kd clone ratio: phage clones, IC50 of the anti-TNF-α antibody divided by Kd* of the clone
Method: (b) Competition Experiments with an Anti-TNF-α Antibody. Competition experiments were performed in the same manner as the K d* experiments except that clones were set in competition with an anti-TNF-α antibody (R&D Systems Inc., Abington, UK) in dilutions ranging from 1.3 × 10^−9 to 6.66 × 10^−7 M in a PBS solution. Plates were first incubated for 30 min with 50 μL/well of antibody dilutions before a one-hour incubation with 50 μL of phage solutions at the K d* concentration. The IC50 of the anti-TNF-α antibody is the antibody concentration required to inhibit by 50% the interaction between phages and TNF-α.
The objective of this test is to set up a competition between every phage clone and another ligand of the target to calculate an inhibition constant value (IC50).

Substance | Kd BSA/Kd TNF-α ratio (human TNF-α [1]) | Interaction with the PFBB coated plate [2] | Staining of liver sections of ConA-treated mice (TNF-α; C57BL/6 mice, ConA 20 mg/Kg, sacrificed 2 hours after injection) | IC50 (human TNF-α [3]) [µM] | IC50 Ab anti-TNF-α/Kd clone ratio (human TNF-α [3]) | Staining of healthy liver sections (TNF-α)
C-NNPLKSL-C (disulfide) [Clone C47-R4, phage clone 47 from round 4 displaying cyclic heptapeptide C-NNPLKSL-C] | 0.02 |  |  |  |  | 
PATLTSL [Clone 2L, biotinylated linear form of the PATLTSL peptide (peptide 2)] |  | only a weak interaction | did not yield such a result |  |  | 
C-PATLTSL-C (disulfide) [Clone C30-R3, phage clone 30 from round 3 displaying cyclic heptapeptide C-PATLTSL-C] | 4.2 × 10^6 |  |  | 0.127 | 6195 | 
(C-)PATLTSL(-C) (disulfide) [Clone 2C, biotinylated cyclic form of the PATLTSL peptide (peptide 2)] |  | only a weak interaction |  |  |  | did not show such a staining
C-GSKTQAP-C (disulfide) [Clone C2-R3, phage clone 2 from biopanning round 3 displaying cyclic heptapeptide C-GSKTQAP-C] | 6 × 10^6 |  |  | 0.112 | 1087 | 
